Experiments:
[1] = molecular target: Human immunodeficiency virus type 1 protease (Human immunodeficiency virus 1) (UniProt Q72874); test: Concentration required for inhibitory activity against HIV-1 protease at concentration of 10e-5 M by using HKARVL-(pNO2)F-EAnLSNH2 as substrate; No significant activity
[2] = molecular target: Human immunodeficiency virus type 1 protease (Human immunodeficiency virus 1) (UniProt Q72874); test: Concentration required for inhibitory activity against HIV-1 protease at concentration of 10e-5 M by using SQN-(pNO2)F-PIV as substrate; No significant activity
[3] = molecular target: Human immunodeficiency virus type 1 protease (Human immunodeficiency virus 1) (UniProt Q72874); test: Concentration required for inhibitory activity against HIV-1 protease at concentration of 10e-5 M by using TLNFPIS AMC as substrate; No significant activity

| Compound | Activity [1] | Activity [2] | Activity [3] |
| --- | --- | --- | --- |
| CC(C)N(CC(=O)N(Cc1ccccc1)CC(O)CN(Cc1ccccc1)C(=O)CN(C(=O)CN(C(=O)OCc1ccccc1)C(C)C)C(C)C)C(=O)CN(C(=O)OCc1ccccc1)C(C)C | No significant activity | No significant activity | No significant activity |
| CC(C)N(CC(=O)N(Cc1ccccc1)CC(O)CN(Cc1ccccc1)C(=O)CN(C(=O)CN(C(=O)OC(C)(C)C)C(C)C)C(C)C)C(=O)CN(C(=O)OC(C)(C)C)C(C)C | No significant activity | No significant activity | No significant activity |
| CC(C)N(CC(=O)N(Cc1ccccc1)CC(O)CN(Cc1ccccc1)C(=O)CN(C(=O)CN(C(=O)CCC(=O)O)C(C)C)C(C)C)C(=O)CN(C(=O)CCC(=O)O)C(C)C | No significant activity | No significant activity | No significant activity |

The remaining lines, values ahead:

| Activity [1] | Activity [2] | Activity [3] | Compound |
| --- | --- | --- | --- |
| No significant activity | No significant activity | No significant activity | CC(C)NCC(=O)N(CC(=O)N(Cc1ccccc1)CC(O)CN(Cc1ccccc1)C(=O)CN(C(=O)CNC(C)C)C(C)C)C(C)C |
| No significant activity | No significant activity | No significant activity | CCCCCCCC/C=C\CCCCCCCC(=O)N(CC(=O)N(CC(=O)N(Cc1ccccc1)CC(O)CN(Cc1ccccc1)C(=O)CN(C(=O)CN(C(=O)CCCCCCC/C=C\CCCCCCCC)C(C)C)C(C)C)C(C)C)C(C)C |
